Values quoted from earlier work in patent US5616615A, “Enaminone esters” (priority 1995, dated 1997).

Details: Kase et al., Jap. J. Pharmacol. 1974; cited from earlier work

SMILES: COc1cccc(C2=C(CN(C)CCc3ccccc3)C(=O)CC(C)(C)C2)c1 [MK 1-907, 5,5-dimethyl-3-(m-methoxy)phenyl-2-N-methyl-N-phenethylaminomethylcyclohex-2-ene-1-one]
- pharmacological actions: potent analgesics with morphine-like, as well as anticonvulsant and papaverine-like, actions

SMILES: CC1(C)CC(=O)C(CN2CCCCC2)=C(Nc2ccccc2Cl)C1 [MK 1-203, 5,5-dimethyl-3-(o-chloro)phenylamino-2-(N-piperidinylmethyl)cyclohex-2-ene-1-one]
- pharmacological actions: potent analgesics with morphine-like, as well as anticonvulsant and papaverine-like, actions
